Publication PMC5880945, “D-Arg^0-Bradykinin-Arg-Arg, a Latent Vasoactive Bradykinin B2 Receptor Agonist Metabolically Activated by Carboxypeptidases” (Frontiers in Pharmacology, 2018)
“Also recorded” adds a separate entry of the source. Square brackets hold non-standard residues; d marks the D form. Peptide text beside a SMILES is read from it.

Experiments:
anesthetized rats [1] = experiment: In vivo hemodynamics in anesthetized rats, dose-response; set-up: species or system male Sprague-Dawley rats; settings: for hypotensive potency, r-BK vs r-BK-RR, in words: i.v. bolus 0.025–12.8 μg/kg; for heart rate response, in words / peptide doses giving hypotensive response significantly greater than vehicle: i.v. bolus; for heart rate response, in words: after brief bradycardic injection artifact, statistically significant only at the highest tested doses; for peptide doses giving hypotensive response significantly greater than vehicle: vs BSA-saline vehicle (Dunnett’s test)
Method: (§1) All surgical and experimental procedures were reviewed and approved by the Animal Care and Handling Committee of Laval University, in accordance with the Canadian Council on Animal Care. Experiments were performed on male Sprague-Dawley rats (300–375 g) purchased from Charles River Laboratories (St-Constant, QC, Canada). The rats were housed in a light-controlled (12:12-h light-dark cycle (lights on at 0600)) and temperature-regulated room (22 ± 1°C). Animals had free access to normal chow diet and tap water. They were allowed to acclimate to their environmental conditions for 1 week prior to being studied. At the end of the acclimation period, the rats were anesthetised with sodium pentobarbital (50 mg kg^-1, i.p., supplemented as required) and had one catheter implanted into the right jugular vein [for intravenous (i.v.) injection] and one into the left femoral artery [for direct and continuous measurement of blood pressure and heart rate as previously described ([Jean et al., 2016])]. Experiments started at least 20 min following the end of surgery in anesthetised rats.
Baseline measurements of heart rate and phasic and mean arterial blood pressure were recorded over a period of 15 min in anesthetized rats. A dose response curve was then obtained by recording changes in blood pressure and heart rate elicited by i.v. injection of peptide vehicle followed by increasing doses (0.025–12.8 μg/kg) of r-BK or r-BK-RR. Peptides were dissolved in isotonic saline (0.9% NaCl) containing 0.1% BSA to prevent the adsorption of peptide to the glassware and plastic surfaces. All i.v. injections were given as 100 μl boluses which were washed in with a further 100 μl of saline (the dead space of the catheter). Only one peptide was tested per group of rats and each injection started with saline-BSA 0.1% followed by the lowest dose of peptide. The next dose was administered once all recorded cardiovascular parameters had returned to baseline after the previous injection (usually 2–10 min). At the end of the experiments each animal was euthanized with an overdose of sodium pentobarbital (240 mg/kg, i.v.).
Results are presented as means ± SEM. Radioligand binding data were fitted by non-linear regression to a one-site competition equation using a least-square method (Prism 5.0, GraphPad Software Inc., San Diego, CA, United States) and IC50 values calculated from this procedure. The same computer program was used to draw concentration-effect curves generated with the contractility assay (least square fitting of sigmoidal dose-response equation with variable slope) and to derive contractile EC50 values. Data describing the dose-response relationship of novel peptides vs. hypotension and heart rate changes, the baseline values of heart rate and mean arterial blood pressure and the effect of drugs on the hemodynamic responses to r-B K and r-BK-RR were assessed by using one-way analysis of variance (ANOVA) followed by the Dunnett’s test (repeated comparison with a common control; Prism 5.0 software).

anesthetized rats [2] = experiment: In vivo hemodynamics in anesthetized rats pretreated with icatibant or peptidase inhibitors; set-up: species or system male Sprague-Dawley rats; settings: 1.6 μg/kg i.v.; for hypotensive response after Plummer’s inhibitor, in words: Dunnett’s P < 0.05 (r-BK-RR); for heart rate response after enalaprilat + Plummer’s inhibitor, in words / duration of hypotensive episode after enalaprilat + Plummer’s inhibitor, in words / hypotensive response after enalaprilat + Plummer’s inhibitor, in words: enalaprilat 0.1 mg/kg + Plummer’s inhibitor 0.75 mg/kg i.v. 15 min before; for duration of hypotensive episode after enalaprilat + Plummer’s inhibitor, in words / hypotensive response after enalaprilat + Plummer’s inhibitor, in words: Dunnett’s P < 0.01 (r-BK); for hypotensive response after enalaprilat + Plummer’s inhibitor, in words: P < 0.05 (r-BK-RR); for duration of hypotensive episode after enalaprilat, in words: Dunnett’s P < 0.001 (r-BK-RR); for duration of residual hypotensive episode after icatibant, in words / heart rate response after icatibant, in words / hypotensive response after icatibant, in words: icatibant 75 μg/kg i.v. 15 min before; for hypotensive response after icatibant, in words: Dunnett’s P < 0.001 (r-BK), P < 0.01 (r-BK-RR)
Method: as §1
The mechanism subserving the cardiovascular responses to random i.v. injections of r-BK and r-BK-RR at the dose of 1.6 μg/kg, was evaluated in rats pretreated with specific antagonists. In these experiments, the rats were separated in four groups depending on the antagonist tested, and the cardiovascular responses to the peptides agonists were compared with those elicited in the untreated control group of rats. In the first group of treated rats, the long acting and selective B2R antagonist, icatibant (Hoe 140) (D-Arg-[Hyp^3, Thi^5, D-Tic^7, Oic^8]) bradykinin ([Hock et al., 1991]; [Wirth et al., 1991]; [Rhaleb et al., 1992]; [Marceau et al., 1994]) was intravenously administered as bolus (75 μg/kg, 0.1 ml) following a 10 min period of baseline measurements of heart rate and blood pressure. Fifteen minutes later, recording changes in blood pressure and heart rate elicited by i.v. injection of peptide vehicle (saline-BSA 0.1%) followed by random injections of r-BK and r-BK-RR, were made as described above. The next peptide was administered once all recorded cardiovascular parameters had returned to baseline after the previous injection. Further experiments were made in a second group of rats pretreated with the ACE inhibitor, enalaprilat. In these experiments, enalaprilat was intravenously administered as bolus ([…], 0.1 ml) 15 min before the i.v. injections of peptide vehicle and both customized peptides, as above. Further experiments were also carried out in rats pretreated with the Plummer’s inhibitor (mercaptomethyl-3-guanidinoethylthiopropanoic acid) a high affinity inhibitor of arginine carboxypeptidases that is an arginine analog ([Plummer and Ryan, 1981]). The inhibitor was intravenously administered as bolus (0.75 mg/kg, 0.1 ml) followed 15 min later by the i.v. injections of saline-BSA 0.1%, and then r-BK and -r-BK-RR (1.6 μg/kg) in random order. A fourth group of rats was pretreated with a combined i.v. injection of enalaprilat (0.1 mg/kg) and the Plummer’s inhibitor (0.75 mg/kg) 15 min before the randomized i.v. injections of both customized peptides, as above. The doses of different inhibitors were based on preliminary experiments and from previous studies performed by us and others ([Ishida et al., 1989]; [Wirth et al., 1991]; [Muto et al., 2003]; [Jean et al., 2016]). At the end of the experiments the rats were euthanized with an overdose of sodium pentobarbital (240 mg/kg, i.v.).
Results are presented as means ± SEM. Radioligand binding data were fitted by non-linear regression to a one-site competition equation using a least-square method (Prism 5.0, GraphPad Software Inc., San Diego, CA, United States) and IC50 values calculated from this procedure. […]

[3] = tested on: GFP-tagged rabbit B2R (B2R-GFP); experiment: B2R-GFP endocytosis and recycling, epifluorescence microscopy, HEK 293 cells; assay type: cell-based; settings: 30 min vs 3 h of stimulation
[4] = Plummer’s inhibitor 0.75 mg/kg i.v. 15 min before
[5] = enalaprilat 0.1 mg/kg i.v. 15 min before
[6] = enalaprilat 0.1 mg/kg i.v. 15 min before, Dunnett’s P < 0.05 (r-BK)

| SMILES | hypotensive potency, r-BK vs r-BK-RR, in words (anesthetized rats [1]) | heart rate response, in words (anesthetized rats [1]) | peptide doses giving hypotensive response significantly greater than vehicle (anesthetized rats [1]) [µg/kg] | duration of hypotensive episode after Plummer’s inhibitor, in words (anesthetized rats [2]; [4]) | heart rate (tachycardic) response after Plummer’s inhibitor, in words (anesthetized rats [2]; [4]) | hypotensive response after Plummer’s inhibitor, in words (anesthetized rats [2]; [4]) | heart rate response after enalaprilat + Plummer’s inhibitor, in words (anesthetized rats [2]) | duration of hypotensive episode after enalaprilat + Plummer’s inhibitor, in words (anesthetized rats [2]) | hypotensive response after enalaprilat + Plummer’s inhibitor, in words (anesthetized rats [2]) | duration of hypotensive episode after enalaprilat, in words (anesthetized rats [2]; [5]) | hypotensive response after enalaprilat, in words (anesthetized rats [2]; [6]) | duration of residual hypotensive episode after icatibant, in words (anesthetized rats [2]) | heart rate response after icatibant, in words (anesthetized rats [2]) | hypotensive response after icatibant, in words (anesthetized rats [2]) | tachycardic response after enalaprilat, in words (anesthetized rats [2]; [6]) | persistence of B2R-GFP endocytosis, in words [3] |
| --- | --- | --- | --- | --- | --- | --- | --- | --- | --- | --- | --- | --- | --- | --- | --- | --- |
| N=C(N)NCCC[C@@H](N)C(=O)N[C@@H](CCCNC(=N)N)C(=O)N1CCC[C@H]1C(=O)N1CCC[C@H]1C(=O)NCC(=O)N[C@@H](Cc1ccccc1)C(=O)N[C@@H](CO)C(=O)N1CCC[C@H]1C(=O)N[C@@H](Cc1ccccc1)C(=O)N[C@@H](CCCNC(=N)N)C(=O)N[C@@H](CCCNC(=N)N)C(=O)N[C@@H](CCCNC(=N)N)C(=O)O [r-BK-RR, D-Arg^0-BK-Arg-Arg] (H-[dR]RPPGFSPFRRR-OH) | virtually equipotent hypotensive agents | brief tachycardic response, statistically significant only at the highest tested doses | ≥ 0.4 | not different from those seen in untreated rats | not different from those seen in untreated rats | significantly reduce the hypotensive response | not different from those seen in untreated rats | not different from those seen in untreated rats | significantly reduce the hypotensive response | significantly increase the duration of the hypotensive episode | no significant effect on the hypotensive response | not different from those of controls | not different from those of controls | strongly reduce the hypotensive response |  |  |
| N=C(N)NCCC[C@@H](N)C(=O)N[C@@H](CCCNC(=N)N)C(=O)N1CCC[C@H]1C(=O)N1CCC[C@H]1C(=O)NCC(=O)N[C@@H](Cc1ccccc1)C(=O)N[C@@H](CO)C(=O)N1CCC[C@H]1C(=O)N[C@@H](Cc1ccccc1)C(=O)N[C@@H](CCCNC(=N)N)C(=O)O [r-BK, D-Arg^0-BK] (H-[dR]RPPGFSPFR-OH) | virtually equipotent hypotensive agents | brief tachycardic response, statistically significant only at the highest tested doses | ≥ 0.4 |  | no effect | no effect | not different from that seen in untreated rats | significantly potentiated | significantly potentiated | not different from that seen in untreated rats | significantly potentiated | comparable to those seen in the untreated group | comparable to those seen in the untreated group | significantly inhibited | significantly potentiated (P < 0.05, Dunnett’s test) as was the tachycardic response | reversible as a function of incubation time, as that of BK; also recorded: not more persistent |
